Data as given in US11970523B2 (priority 2018, dated 2024).

Test: Weight gain slowing test
Assay type: in vivo, Male C57bl/6 mice
Details: high-fat fed mice, 50 nmol/kg every day for 56 days
Procedure: (§1) Male C57bl/6 mice were fed with high-fat feed for 4 weeks. The mice with body weights greater than 30 g were selected for the test, and were randomly divided into 26 groups, 8 mice per group. […] Fasting body weights of each group of mice on Day 1 and Day 56 were tested, and the average body weight change of each group of mice was examined.
as §1, with “7” for “26”
as §1, with “8” for “26”

Oxyntomodulin [OXM, reference compound]
fasting body weight, Day 1 (Table 3, in g (unit assumed)): 32.5 ± 0.7
fasting body weight, Day 56 (Table 3, in g (unit assumed)): 40.3 ± 1.3
fasting body weight, Day 1 (Table 5, in g (unit assumed)): 31.0 ± 0.8
fasting body weight, Day 56 (Table 5, in g (unit assumed)): 41.0 ± 0.7
fasting body weight, Day 1 (Table 7, in g (unit assumed)): 30.5 ± 0.6
fasting body weight, Day 56 (Table 7, in g (unit assumed)): 39.6 ± 1.3
fasting body weight, Day 1 (Table 9, in g (unit assumed)): 31.9 ± 0.6
fasting body weight, Day 56 (Table 9, in g (unit assumed)): 42.1 ± 1.3
fasting body weight, Day 56 (Table 11): 43.3±
fasting body weight, Day 1 (Table 11, in g (unit assumed)): 32.7
